# Source: publication PMC7037732, “Synthesis of Combretastatin A-4 and 3′-Aminocombretastatin A-4 derivatives with Aminoacid Containing Pendants and Study of their Interaction with Tubulin and as Downregulators of the VEGF, hTERT and c-Myc Gene Expression” (Molecules, 2020)
# Columns and labels:
# A-549 cells [1] = assay: Effect on the cellular microtubule network (immunofluorescence); assay type: cell-based, human; conditions: A-549, 24 h
# Protocol: The effect on the cellular microtubule network of CA-4 derivatives was studied for compounds 1, 3.7 (L-Thr-OMe), 3.8 (L-Tyr-OMe), 4.2 (L-Val) and 4.3 (L-Leu), which were those accumulating more cells in the G2/M phase. Thus, A-549 cells were incubated for 24 h in the presence of the above compounds and CA-4 at the concentrations indicated in Figure 4.
# The effect of some derivatives on the cellular microtubule network were also studied on A-549 cells. The selected compounds were 7.1 (Fmoc-Gly) (0.5 μM), 8.1 (Gly) (2 μM), 8.2 (L-Ala) (3 μM) and 10.1 (D-Val) (40 μM), which were those exerting a higher effect on the cell cycle.
# For immunofluorescence microscopy of the microtubule network, 10^6 cells were plated on cover glass and incubated with the different drugs. Cells were then fixed in 3.7% formaldehyde (in PBS pH 7.4) for 20 min at room temperature and permeabilized with PBS-Triton X-100 0.5% for 10 min at room temperature. Direct immunostaining was carried out for 2 h at room temperature with a primary FITC-conjugated anti-α-tubulin antibody (dilution 1:400 in PBS-BSA 1% from a 1 mg/mL solution; monoclonal antibody, clone DM1A; Sigma-Aldrich, Darmstadt, Germany.). Next, cells were incubated for 45 min at room temperature in darkness with secondary Alexa Fluor 488-conjugated antibodies (dilution 1:200 each from 1.5 mg/mL; Molecular Probe, France). Then, cells were washed in PBS and cover glasses were mounted with a drop of ProLong® antifade solution (Invitrogen). The cytoskeleton was imaged by a confocal laser scanning microscope (CLSM) Leica SP5 with a Leica inverted microscope, equipped with a Plan-Apochromat 63× oil immersion objective (NA = 1.4). Each image was recorded with the CLSM’s spectral mode selecting specific domains of the emission spectrum. The FITC fluorophore was excited at 488 nm with an argon laser, and its fluorescence emission was collected between 496 nm and 535 nm.
# [2] = system: HT-29 (human colon adenocarcinoma); assay: Inhibition of cell proliferation (MTT), HT-29; assay type: cell-based; conditions: Homo sapiens, 48 h of treatment (footnote), average ±SD of three experiments
# [3] = system: A-549 (human pulmonary adenocarcinoma); assay: Inhibition of cell proliferation (MTT), A-549; assay type: cell-based; conditions: 48 h of treatment (footnote), average ±SD of three experiments
# Outline: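 Antiproliferative activity against A-549 human pulmonary adenocarcinoma cells was measured by MTT assay. Cells were seeded at 25,000/mL in 96-well plates, cultured 24 h, then exposed to compounds at various concentrations. MTT (20 µL, 5 mg·mL^−1) was added for 2 h at 37 °C, formazan dissolved in 200 µL DMSO, and absorbance read at 540 nm. IC50 values came graphically from three independent experiments.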
# [4] = system: HEK-293 (human embryonic kidney cells); assay: Inhibition of cell proliferation (MTT), nontumor HEK-293; assay type: cell-based; conditions: Homo sapiens, 48 h of treatment (footnote), average ±SD of three experiments
# A-549 cells [5] = assay: Cell cycle distribution by flow cytometry; assay type: cell-based, human; conditions: A-549, 24 h; for cells accumulated in the G2/M phase: concentration per compound as in Tables 6 and 7, control 14%
# Outline: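 A-549 cells were harvested, fixed in cold 70% ethanol (30 min, −20 °C), then stained with 50 µg/mL propidium iodide plus 100 µg/mL RNase A in PBS for 20 min at room temperature in the dark. Flow cytometry used 488 nm excitation and 620 nm emission, giving the percentage of cells in G2/M.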
# [6] = system: MCF-7 (breast adenocarcinoma); assay: Inhibition of cell proliferation (MTT), MCF-7; assay type: cell-based, human; conditions: Homo sapiens, 48 h of treatment (footnote), average ±SD of three experiments
# purified tubulin = assay: Critical concentration (CrC) for the assembly of purified tubulin in GAB; assay type: biochemical; conditions: compound 27.5 μM, tubulin 25 μM, glycerol (GAB) and GTP assembly buffer; control 7.9 ± 1.2
# Protocol: The effect on the self-assembly of tubulin was determined by measuring the critical concentration (CrC).
# VEGF gene = VEGF gene expression by RT-qPCR in HT-29 cells; assay type: cell-based, human; conditions: Homo sapiens, HT-29, 48 h, 7 nM, control 100
# Protocol: (§1) The effect on the expression of VEGF, hTERT and c-Myc genes has been studied for CA-4 and its derivatives that show selectivity indexes higher than 0.9 on the HT-29 cell line. The studied derivatives, together with the concentrations to which they have been tested, are CA-4 (15 μM); 4.1 (Gly, 5 μM); 4.5 (L-Pro, 25 μM); 4.9 (L-Met, 25 μM); 6.2 (D-Leu, 25 μM); 6.3 (D-Phe, 25 μM); 6.4 (D-Pro, 25 μM) and 6.5 (D-Ser, 10 μM). The expression of the genes was determined by RT-qPCR methodology, as described in the Materials and Methods section.
# (§2) As regards AmCA-4 derivatives, the effect on the expression of the VEGF, hTERT and c-Myc genes has been studied on those that show IC50 in the low nanomolar range on the HT-29 cell line and/or on compounds whose selectivity indexes with respect to this cell line are higher than 1. The studied compounds, together with the concentrations to which they have been tested, are: CA-4 (15 μM), AmCA-4 (15 nM), 7.1 (7 nM), 7.2 (1.5 nM), 7.3 (4 nM), 7.4 (15 nM), 7.5 (2 nM), 7.7 (7 nM), 7.8 (15 nM), 7.9 (30 nM), 8.1 (7 nM), 8.2 (3 nM), 8.3 (10 nM), 8.4 (1.5 nM), 8.5 (4 nM), 8.7 (7 nM), 8.8 (3 nM) and 8.9 (4 nM).
# (§3) HT-29 cells at 70–80% confluence were collected, and 1.5 × 10^5 cells were placed in a six-well plate in 1.5 mL of the medium. After 24 h, cells were incubated with the corresponding compounds for 48 h. Cells were collected, and the total cellular RNA from the HT-29 cells was isolated using an Ambion RNA Extraction Kit, according to the manufacturer’s instructions. The cDNA was synthesized by MMLV-RT with […] of extracted RNA and oligo(dT)15, according to the manufacturer’s instructions. Genes were amplified by a thermal cycler and StepOnePlus™ TaqMan® probes. TaqMan® Gene Expression Master Mix Fast, containing the appropriate buffer for the amplification conditions, dNTPs, thermostable DNA polymerase enzyme and a passive reference probe, was used. To amplify each of the genes, the predesigned primers sold by Life Technologies TaqMan® Gene Expression Assays Hs99999903-m1 (β-actin), Hs00900055-m1 (VEGF), Hs00972646-m1 (hTERT) and Hs00153408-m1 (c-Myc) were used.
# hTERT gene = hTERT gene expression by RT-qPCR in HT-29 cells; assay type: cell-based, human; conditions: Homo sapiens, HT-29, 48 h, 7 nM, control 100
# Protocol: as §1, §2, §3
# tubulin = assay: In vitro tubulin polymerization by turbidimetry (It50); assay type: biochemical; conditions: turbidimetry at 350 nm, 37 °C; control 16.6 ± 1.0
# Protocol: Figure 3 also includes polymerization curves in the presence of CA-4, AmCA-4 and paclitaxel. This test was also performed using paclitaxel, a microtubule stabilizing agent, as a control for the complete formation of microtubules (see Figure 3).
# c-Myc gene = c-Myc gene expression by RT-qPCR in HT-29 cells; assay type: cell-based, human; conditions: Homo sapiens, HT-29, 48 h, 7 nM, control 100
# Protocol: as §1, §2, §3
# [7] = Homo sapiens, A549, 48 h, Table 1
# [8] = Homo sapiens, A549, 48 h, Table 2
Structure (SMILES),Effect on the microtubule network (A-549 cells [1]; 50 μM),"IC50 ([2]; HT-29, 48 h, Table 1)","IC50 [3, 7]","IC50 ([4]; HEK293, 48 h, Table 1)",cells accumulated in the G2/M phase (A-549 cells [5]),"IC50 ([6]; MCF7, 48 h, Table 1)",CrC (critical concentration) (purified tubulin),G0/G1 (A-549 cells [5]; 75 μM),G2/M (A-549 cells [5]; 75 μM),S (A-549 cells [5]; 75 μM),further results
"CCOC(=O)COc1cc(/C=C\c2cc(OC)c(OC)c(OC)c2)ccc1OC [Compound 1, Ethyl (Z)-2-(2-methoxy-5-(3,4,5-trimethoxystyryl)phenoxy)acetate]",produce disorganization in the mitotic spindle,7 ± 4 µM,< 10 µM,3.6 ± 0.5 µM,50–70%,8 ± 4 µM,,,,,IC50 ([3]; Table 1): 9 ± 1 µM; G0/G1 (A-549 cells [5]; 50 μM): 23 ± 5%; G2/M (A-549 cells [5]; 50 μM): 55 ± 8%; S (A-549 cells [5]; 50 μM): 22 ± 4%
COC(=O)[C@@H](NC(=O)COc1cc(/C=C\c2cc(OC)c(OC)c(OC)c2)ccc1OC)C(C)O (stereo partly drawn) [Compound 3.7],,18 ± 7 µM,19 ± 1 µM,14 ± 2 µM,50–70%,12 ± 4 µM,10 ± 3 µM,25 ± 5%,57 ± 6%,18 ± 1%,Effect on the microtubule network (A-549 cells [1]; 75 μM): produce disorganization in the mitotic spindle
COC(=O)[C@H](Cc1ccc(O)cc1)NC(=O)COc1cc(/C=C\c2cc(OC)c(OC)c(OC)c2)ccc1OC [Compound 3.8],,16 ± 5 µM,18 ± 1 µM,10 ± 2 µM,50–70%,12 ± 4 µM,,17 ± 2%,65 ± 1%,18 ± 1%,Effect on the microtubule network (A-549 cells [1]; 75 μM): produce disorganization in the mitotic spindle
COc1ccc(/C=C\c2cc(OC)c(OC)c(OC)c2)cc1OCC(=O)N[C@@H](CC(C)C)C(=O)O [Compound 4.3],produce disorganization in the mitotic spindle,15 ± 5 µM,14 ± 2 µM,9 ± 2 µM,50–70%,16 ± 6 µM,8 ± 3 µM,22 ± 6%,63 ± 5%,15 ± 2%,
COc1ccc(/C=C\c2cc(OC)c(OC)c(OC)c2)cc1OCC(=O)N[C@@H](Cc1ccccc1)C(=O)O [Compound 4.4],produce disorganization in the mitotic spindle,,100 ± 20 µM,,,,11.4 ± 0.7 µM,,,,"IC50 ([2]; HT-29, Table 1): 54 ± 9 µM; IC50 ([4]; HEK293, Table 1): 47 ± 3 µM; IC50 ([6]; MCF7, Table 1): 45 ± 4 µM"
COc1ccc(/C=C\c2cc(OC)c(OC)c(OC)c2)cc1NC(=O)[C@@H](NC(=O)OCC1c2ccccc2-c2ccccc21)C(C)O (stereo partly drawn) [Compound 7.7],,,,,,,12.0 ± 0.3 µM,,,,"mrna remaining at 0.007 µM (VEGF gene): 37%; mrna remaining at 0.007 µM (hTERT gene): < 70%; It50 (time required to reach 50% of the polymerization) (tubulin): 19.2 ± 0.3 min; IC50 ([2]; HT-29, 48 h, Table 2): 0.009 ± 0.003 µM; IC50 [3, 8]: 0.422 ± 0.008 µM; IC50 ([4]; HEK293, 48 h, Table 2): 0.013 ± 0.002 µM; mrna remaining at 0.007 µM (c-Myc gene): 56%; IC50 ([6]; MCF7, 48 h, Table 2): 0.025 ± 0.012 µM"
COc1ccc(/C=C\c2cc(OC)c(OC)c(OC)c2)cc1NC(=O)[C@H]1CCCN1C(=O)OCC1c2ccccc2-c2ccccc21 [Compound 9.4],,,,,,,11.4 ± 0.2 µM,,,,"It50 (time required to reach 50% of the polymerization) (tubulin): 16.5 ± 0.3 min; IC50 ([2]; HT-29, 48 h, Table 2): 5.3 ± 0.3 µM; IC50 [3, 8]: 12.8 ± 0.8 µM; IC50 ([4]; HEK293, 48 h, Table 2): 3.1 ± 1.1 µM; IC50 ([6]; MCF7, 48 h, Table 2): 5.3 ± 1.1 µM"
